{"source": "patent US9475789B2", "about": "“Use of polyenylpyrrole derivatives for treating inflammation” (WELLHEAD BIOLOGICAL TECHNOLOGY CORP., priority 2014, dated 2016)", "key": {"TNF-α [1]": {"system": "TNF-α", "assay": "TNF-α ELISA, RAW 264.7 macrophages", "type": "cell-based, murine", "protocol": "In (A) and (C), cells (5×10^5/ml) were incubated with polyenylpyrrole derivatives or DMSO (vehicle) for 30 min followed by stimulating with LPS (1 μg/ml) for 24 h, then NO (A), IL-6 and TNF-α (C) concentration in culture medium were assayed by Griess reaction and ELISA, respectively. In (B), cells (5×10^5/ml) were pretreated with polyenylpyrrole derivatives or DMSO for 30 min followed by stimulating with LPS (1 μg/ml) for 24 h, then the protein expression of iNOS and COX-2 were assayed by Western blot.\n(§1) The effects of tested samples on IL-1β, TNF-α and IL-6 production were measured by ELISA according to the manufacturer's instruction. In brief, 50 μl of biotinylated antibody reagent and 50 μl of supernatant were added to an anti-mouse IL-1β, TNF-α and IL-6 precoated stripwell plate, and incubated at room temperature for 2 h. After washing the plate three times with washing buffer, 100 μl of diluted streptavidin-HRP concentrate was added to each well and incubated at room temperature for 30 min. The washing process was repeated; then 100 μl of a premixed tetramethylbenzidine substrate solution was added to each well and developed at room temperature in the dark for 30 min. Following the addition of 100 μl of stop solution to each well to stop the reaction, the absorbance of the plate was measured by a microplate reader at 450 nm wavelength."}, "IL-6 [2]": {"system": "IL-6", "assay": "IL-6 ELISA, LPS-primed ATP-stimulated J774A.1 macrophages", "type": "cell-based, mouse", "conditions": "LPS-primed J774A.1; compound 30 min before ATP stimulation", "protocol": "(A) J774A.1 macrophages (1×10^6/ml) and (B) peritoneal macrophages (1×10^5/ml) were incubated with compound 1h for 30 min followed by LPS (1 μg/ml) stimulating for 5.5 h, then the cells were stimulated with ATP (5 mM) for an additional 30 min. The IL-1β in the culture medium was measured by ELISA and the expression of active caspase-1 (p10) was measured by Western blot. In (C) and (D), J774A.1 macrophages (1×10^6/ml) were incubated with LPS (1 μg/ml) for 5.5 h, then cells were incubated with compound 1h for 30 min followed by stimulating with ATP (5 mM) for an additional 30 min. The IL-1β and IL-6 in the culture medium were measured by ELISA and the expression of active caspase-1 (p10) was measured by Western blot. In (E), J774A.1 macrophages (1×10^6/ml) were incubated with compound 1h for 30 min followed by LPS (1 μg/ml) stimulating for 6 h. The expression of NLRP3 and proIL-1β were measured by Western blot.\nThe effects of tested samples on IL-1β, TNF-α and IL-6 production were measured by ELISA according to the manufacturer's instruction. […] Following the addition of 100 μl of stop solution to each well to stop the reaction, the absorbance of the plate was measured by a microplate reader at 450 nm wavelength."}, "ERK1/2, JNK1/2, p38": {"system": "ERK1/2, JNK1/2, p38", "assay": "Western blot of MAPK phosphorylation, LPS-activated RAW 264.7 macrophages", "type": "cell-based, murine", "conditions": "compound 1h 20 μM", "protocol": "(§2) In (A), RAW 264.7 macrophages (5×10^5/ml) were incubated with compound 1h (20 μM), N-acetyl cysteine (NAC; 10 mM) or DMSO (vehicle) for 30 min followed by LPS (1 μg/ml) stimulating for the indicated time, then ROS levels were measured by detection of the fluorescence intensity of the fluorophore carboxyl-DCF and expressed relative to those at time zero. In (B), RAW 264.7 macrophages (5×10^5/ml) were incubated with compound 1h (20 μM) or DMSO for 30 min followed by LPS (1 μg/ml) stimulating for 0-60 min, then the phosphorylation levels of ERK1/2, JNK1/2, p38 were analyzed by Western blot. In (C), J774A.1 macrophages (5×10^5/ml) were incubated with compound 1h or DMSO for 30 min followed by LPS (1 μg/ml) stimulating for 20 min, then the phosphorylation levels of ERK1/2, JNK1/2, p38 were analyzed by Western blot.\nWhole cell lysates were separated by SDS-PAGE and electrotransferred to a PVDF membrane. The membranes were incubated in blocking solution—5% nonfat milk in phosphate buffered saline with 0.1% Tween 20—at room temperature for 1 h. Each membrane was incubated with a specific primary antibody at room temperature for 2 h. After washing three times in PBS with 0.1% Tween 20, the membrane was incubated with an HRP-conjugated secondary antibody directed against the primary antibody. The membrane was developed by an enhanced chemiluminescence Western blot detection system."}, "ROS": {"system": "ROS", "assay": "Intracellular ROS production, LPS-activated RAW 264.7 macrophages", "type": "cell-based, murine", "conditions": "compound 1h 20 μM, NAC 10 mM, 30 min before LPS", "protocol": "as §2\nIntracellular ROS stimulated by LPS was measured by detecting the fluorescence intensity of the 2′,7′-dichlorofluorescein diacetate (H2DCFDA) oxidized product (DCF) (Molecular Probes, Eugene, Oreg.). […] The relative fluorescence intensity of fluorophore DCF, formed by peroxide oxidation of the non-fluorescent precursor, was detected at an excitation wavelength of 485 nm and an emission wavelength of 530 nm with a microplate absorbance reader (Bio-Rad Laboratories, Inc)."}, "TNF-α [3]": {"system": "TNF-α", "assay": "TNF-α ELISA, LPS-activated J774A.1 macrophages", "type": "cell-based, murine", "conditions": "J774A.1 cells, LPS 1 μg/ml 24 h", "protocol": "(§3) (A) J774A.1 macrophages (4×10^5/ml), (B) peritoneal macrophages (4×10^5/ml), and (C) JAWSII dendritic cells (4×10^5/ml) were incubated with compound 1h or DMSO for 30 min followed by stimulating with LPS (1 μg/ml) for 24 h, then IL-6 and TNF-α concentration in culture medium were assayed by ELISA. The data are expressed as the mean±SD for three separate experiments. *, **, and *** indicate a significant difference at the level of p<0.05, p<0.01, p<0.001 respectively compared to LPS group.\nas §1"}, "IL-6 [4]": {"system": "IL-6", "assay": "IL-6 ELISA, LPS-activated JAWSII dendritic cells", "type": "cell-based, murine", "conditions": "LPS 1 μg/ml 24 h", "protocol": "as §3, §1"}}, "data": [{"smiles": "O=c1cc(O)cc(/C=C/C=C/C=C/C=C/c2[nH]ccc2Cl)o1", "note": "[Compound 1h]", "values": [{"measurement": "TNF-α secretion", "setting": "TNF-α [1]; LPS-activated RAW 264.7, LPS 1 μg/ml 24 h", "value": "slight reduced by compounds 1h, 1i and 1n, but not significantly"}, {"measurement": "background level of TNF-α", "setting": "TNF-α [1]; compound alone, no LPS, data not shown", "value": "did not alter"}, {"measurement": "IL-6 secretion", "setting": "IL-6 [2]", "value": "no significant effect"}, {"measurement": "phosphorylation level of ERK1/2", "setting": "ERK1/2, JNK1/2, p38", "value": "inhibited"}, {"measurement": "phosphorylation level of JNK1/2", "setting": "ERK1/2, JNK1/2, p38", "value": "inhibited"}, {"measurement": "phosphorylation level of p38", "setting": "ERK1/2, JNK1/2, p38", "value": "inhibited"}, {"measurement": "LPS-stimulated ROS production", "setting": "ROS", "value": "able to reduce LPS-stimulated ROS production"}, {"measurement": "secretion of TNF-α", "setting": "TNF-α [3]", "value": "reduced"}, {"measurement": "secretion of IL-6", "setting": "IL-6 [4]", "value": "also reduced"}]}]}
